Assay results taken from patent US20210238169A1, “PROCESS FOR PREPARING A COMPOUND OF FORMULA (XIII)” (PULMOCIDE LIMITED, priority 2014, published 2021).

Tests used:
[1] = system: Aspergillus fumigatus (ATCC 13073); assay: Survival of severely immunocompromised, neutropenic mice infected with Aspergillus fumigatus, monotherapy or combination; assay type: in vivo; details: Compound (I) 0.4 mg/mL (in), Posaconazole 1 mg/kg (po), once daily days 1-6
Protocol: On day 0, animals were infected intranasally with 35 μL of the spore suspension (1.67×10^8 spores/mL in physiological saline) of Aspergillus fumigatus (ATCC 13073 [strain: NIH 5233]). Compound (I) prepared as a suspension in isotonic saline (0.4 mg/mL) was dosed once daily by an intra-nasal injection (35 μL/mouse) on days 1-6 after infection. Posaconazole (1 mg/kg) was given orally once daily on days 1-6 after infection. Body weight and survival were monitored daily up to day 7.

[2] = system: Aspergillus fumigatus (ATCC 13073); assay: Body weight loss of Aspergillus fumigatus infected, immunocompromised, neutropenic mice; assay type: in vivo; details: 0.4 mg/mL intra-nasally, prophylactic; for Body weight loss caused by infection with A. fumigatus: % weight loss compared with day 0
Protocol: Aspergillus fumigatus (ATCC 13073 [strain: NIH 5233], American Type Culture Collection, Manassas, Va., USA) was grown on Malt agar (Nissui Pharmaceutical, Tokyo, Japan) plates for 6-7 days at RT (24±1° C.). Spores were aseptically dislodged from the agar plates and suspended in sterile distilled water with 0.05% Tween 80 and 0.1% agar. On the day of infection, spore counts were assessed by haemocytometer and the inoculum was adjusted to obtain a concentration of 1.67×10^8 spores mL^−1 of physiological saline.
On day 0, animals were infected with the spore suspension (35 μL intra-nasally).
Test compounds were administered intra-nasally (35 μL of a suspension of 0.08-2.00 mg/mL in physiological saline) once daily, 30 min before infection on day 0 and then on days 1, 2 and 3 (representing prophylactic treatment) or on days 1, 2 and 3 only (representing therapeutic treatment). For extended prophylactic treatment, test compounds (35 μL of a suspension of 0.0032 or 0.016 mg/mL in physiological saline) were administered intra-nasally once daily for seven days; then 30 min before infection on day 0, and thereafter, either on days 1, 2 and 3 after infection, or on day 0 only. The effects of these treatment paradigms were compared with those obtained when treatment was restricted to one day and 30 min before inoculation and then on days 1, 2 and 3 post infection; or reduced still further to one day and 30 min before infection only.

[3] = system: Aspergillus fumigatus (TR34-L98H strain); assay: Aspergillus fumigatus invasion in human alveoli bilayers (transwells), GM in lower chamber; assay type: cell-based; details: Compound (I) 1 μg/mL upper chamber, Posaconazole 0.1 μg/mL lower chamber
Protocol: In vitro models of human alveoli, consisting of a bilayer of human alveolar epithelial cells and endothelial cells, were prepared as previously described (Hope et al., 2007). This system allows administration of a test compound to the upper (“air” space) and/or lower (“systemic” space) compartments. This flexibility has been exploited to explore the effects of combination treatments by dosing Compound (I) to the upper chamber and posaconazole or other anti-fungal agents to the lower chamber. Primary human pulmonary artery endothelial cells (HPAEC) were harvested and diluted to 10^6 cells/mL in EGM-2 media (Lonza, Basel, Switzerland). Transwells were inverted and the cell suspension (100 μL/well) was applied to the base of each transwell. The inverted transwells were incubated at RT within a flow hood for 2 hr after which they were turned upright. EGM-2 media was added to the lower (700 μL/well) and upper (100 μL/well) compartments and the transwells were incubated for 48 hr (37° C., 5% CO2). The EGM-2 media in the lower compartment was then replaced with fresh EGM-2 media. A549 cells were harvested and diluted to 5×10^5 cells/mL in 10% EBM, then added to the upper compartment (100 μL/well) of all transwells and the plates incubated for 72 hr (37° C., 5% CO2). Conidia of Aspergillus fumigatus (the itraconazole sensitive strain NCPF2010 and the itraconazole resistant strain TR34-L98H) were cultured separately in Sabouraud dextrose agar for 3 days. A stock conidia suspension of either strain was prepared from a Sabouraud dextrose agar culture by washing with PBS-tween (10 mL; PBS containing 0.05% Tween-20, 100 U/mL Penicillin and 100 U/mL Streptomycin). The conidia count was assessed using a Neubauer haemocytometer and adjusted to 10^6 conidia/mL with PBS. A working stock of conidia was prepared in EBM (conc of 10^5 conidia/mL) immediately prior to use.
Test and reference compounds (or neat DMSO as the vehicle) were added to the appropriate wells of 24-well plates (3 μL/well containing 600 μL of 2% FBS EBM) for lower compartment treatment and to 96-well plates (1 μL/well containing 200 μL of 2% FBS EBM) for the treatment of the upper compartment, to provide a final DMSO concentration of 0.5%. The media in the upper compartment was aspirated and that containing the appropriate test and reference compounds, or vehicle, were added (100 μL/well). Transwells were then transferred into the 24-well plate containing the test and reference compounds or DMSO vehicle. After incubation for 1 hr (35° C., 5% CO2) the conidia suspension (10 μL/well) was added to the upper compartment of each transwell. Plates were then incubated for 24 hr (35° C., 5% CO2). Supernatants from each compartment (5 μL/compartment) were collected and stored (−20° C.). Media was replaced daily after collection of the supernatants and all wells were treated with test and reference compounds or with DMSO, as described above, for 3 days. Samples continued to be collected until fungal growth was visible by eye in all transwells. The levels of GM in the supernatant in lower compartment were then measured by ELISA (BioRad, CA, USA) as an index of Aspergillus fumigatus invasion.

SMILES | Median survival [1] | No. of survivors on day 7 [1] | survivors on day 7 (%) [1] | % Inhibition of weight loss ([2]; Day 1) | Body weight loss caused by infection with A. fumigatus ([2]; Day 1) | % Inhibition of weight loss ([2]; Day 2) | Body weight loss caused by infection with A. fumigatus ([2]; Day 2) | % Inhibition of weight loss ([2]; Day 3) | Body weight loss caused by infection with A. fumigatus ([2]; Day 3) | DFB50 (days taken to reach a fungal burden of 50% of control) [3] | GM Levels in the Lower Chamber, OD value ([3]; Treatment Day 0) | GM Levels in the Lower Chamber, % inhibition vs. control ([3]; Treatment Day 1) | GM Levels in the Lower Chamber, OD value ([3]; Treatment Day 1) | GM Levels in the Lower Chamber, % inhibition vs. control ([3]; Treatment Day 2) | GM Levels in the Lower Chamber, OD value ([3]; Treatment Day 2) | GM Levels in the Lower Chamber, % inhibition vs. control ([3]; Treatment Day 3) | GM Levels in the Lower Chamber, OD value ([3]; Treatment Day 3) | GM Levels in the Lower Chamber, % inhibition vs. control ([3]; Treatment Day 4) | GM Levels in the Lower Chamber, OD value ([3]; Treatment Day 4)
CC[C@@H]([C@H](C)O)n1ncn(-c2ccc(N3CCN(c4ccc(OC[C@@H]5CO[C@@](Cn6cncn6)(c6ccc(F)cc6F)C5)cc4)CC3)cc2)c1=O [Posaconazole] | 6.5 days | 0/6 | 0% | 21% | 7.3 ± 2.0% | 6% | 13.4 ± 1.9% | 6% | 18.1 ± 2.0% | 1.64 days | 0 OD | 88% | 0.039 OD | −2.7% | 1.02 OD | 1.7% | 0.97 OD | −1.4% | 1.02 OD
Cc1cc(N2CCN(c3ccc(C(=O)Nc4ccc(F)cc4)cc3)CC2)ccc1OC[C@@H]1CO[C@@](Cn2cncn2)(c2ccc(F)cc2F)C1 [Compound (I), 4-(4-(4-(((3R,5R)-5-((1H-1,2,4-triazol-1-yl)methyl)-5-(2,4-difluorophenyl)tetrahydrofuran-3-yl)methoxy)-3-methylphenyl)piperazin-1-yl)-N-(4-fluorophenyl)benzamide] | 6 days | 0/6 | 0% | 34% | 6.1 ± 1.8% | 39% | 8.7 ± 2.5% | 42% | 11.1 ± 5.6% | 1.10 days | 0 OD |  | 0.35 OD |  | 0.99 OD |  | 0.99 OD |  | 1.01 OD
